Reference: patent publication US9458202B2, “Peptidomimetic macrocycles with improved properties” (Aileron Therapeutics, Inc., priority 2008, dated 2016)
Where a SMILES comes first, the peptide text is derived from it. Bridges are numbered along the chain shown (N, C = ends). [ ]: non-standard residue; d: D form. S5 = C=CCCC[C@](C)(N)C(=O)O; Nle = CCCC[C@H](N)C(=O)O

Tests used:
circular dichroism = assay: circular dichroism; design: unit not given here; details: 20 mM phosphoric acid; pH 2.0; 5 °C; 0.05 mg/mL
Figure 2 = assay: Figure 2; design: AUCall: concentration or dose not given beside the values; details: for C0 / half-life / MRT: Sprague-Dawley, rat, plasma, iv; for MRT: read-out: MRTinf_obs
Description: Table printed on a drawing sheet, Figure 2
Footnotes: 2 mg/mL iv bolus in Sprague-Dawley rats (10 mg/kg) / * 0.6 mg/mL iv bolus in Sprague-Dawley rats (3 mg/kg)
The patent's description of the figure: FIG. 2 lists the in vivo half-lives of peptidomimetic macrocycles of the invention. Half-lives were measured in Sprague Dawley rats after one intravenous bolus injection at 0.6 mg/mL or 2 mg/mL of each unlabeled peptidomimetic macrocycle at a 3 mg/kg or 10 mg/kg dose, respectively. Three animals were used per compound and concentrations were determined by mass-spectrometric analysis of blood levels (plasma).
First reader's note: An asterisk before the peptide name marks dosing at 3 mg/kg (0.6 mg/mL) instead of 10 mg/kg (2 mg/mL).

Figure 5 = assay: Figure 5
Excerpt: Table printed on a drawing sheet, Figure 5
The patent's description of the figure: FIG. 5 illustrates the PK profile in rat and monkey for a peptidomimetic macrocycle of the invention.
First reader's note: The first row combines the substance name (SP2) with the conditions dose, route and species in one cell.

Compound | helicity (circular dichroism) | AUCall (Figure 2) [ng·h/mL] | Cl_obs (Figure 2) [mL/min/kg] | C0 (Figure 2) [ng/mL] | half-life (Figure 2) [h] | MRT (Figure 2) [h] | AUC all (Figure 5) [ng·h/mL] | Cmax (Figure 5) [ng/mL] | MRTinf (Figure 5) [h] | T ½ (Figure 5) [h]
CCCC[C@H](NC(=O)[C@]1(C)CCCC=CCCC[C@](C)(NC(=O)[C@H](C)NC(=O)[C@H](CC(C)C)NC(=O)[C@H](Cc2c[nH]cn2)NC(=O)[C@H](CCCNC(=N)N)NC(=O)[C@H](C)NC(=O)[C@@H](NC(=O)[C@H](CC(N)=O)NC(=O)[C@H](CCCNC(=N)N)NC(=O)[C@@H](NC(=O)[C@@H](NC(=O)[C@H](CC(=O)O)NC(C)=O)[C@@H](C)CC)[C@@H](C)CC)[C@@H](C)CC)C(=O)N[C@@H](C(C)C)C(=O)NCC(=O)N[C@@H](CC(=O)O)C(=O)N1)C(=O)N[C@@H](CC(=O)O)C(=O)N[C@@H](CCCNC(=N)N)C(=O)N[C@@H](CO)C(=O)N[C@H](C(N)=O)[C@@H](C)CC [SP1] (Ac-DIIRNIARHLA[S5]VGD[S5][Nle]DRSI-NH2; staple 12-16) | -8150 | 268275 | 0.737 | 154000 |  |  |  |  |  | 
CC[C@H](C)[C@H](NC(C)=O)C(=O)N[C@@H](Cc1c[nH]c2ccccc12)C(=O)N[C@H](C(=O)N[C@@H](C)C(=O)N[C@@]1(C)CCCC=CCCCC2(CCCC=CCCCCCC[C@@](C)(C(=O)N[C@@H](Cc3ccc(O)cc3)C(=O)N[C@@H](Cc3ccc(O)cc3)C(=O)N[C@@H](C)C(=O)N[C@@H](CCCNC(=N)N)C(=O)N[C@@H](CCCNC(=N)N)C(N)=O)NC(=O)[C@H](CC(N)=O)NC(=O)[C@H](Cc3ccccc3)NC(=O)[C@H](CCC(=O)O)NC(=O)[C@H](CC(=O)O)NC(=O)CNC(=O)[C@H]([C@@H](C)CC)NC2=O)NC(=O)[C@H](CCCNC(=N)N)NC(=O)[C@H](CC(C)C)NC(=O)[C@H](C)NC1=O)[C@@H](C)CC (stereo partly drawn) [*SP21] | -11200 | 7000 | 6.977 | 1450 | 5.7 | 6.6 |  |  |  | 
Ac-QSQQTFSNLWRLLPQN-NH2 [*SP22] | -646 | 75 | 700 | 15100 | < 0.1 | < 0.1 |  |  |  | 
CC[C@H](C)[C@H](NC(C)=O)C(=O)N[C@@H](Cc1c[nH]c2ccccc12)C(=O)N[C@H](C(=O)N[C@@H](C)C(=O)N[C@@H](CCC(N)=O)C(=O)N[C@@H](CCC(=O)O)C(=O)N[C@@H](CC(C)C)C(=O)N[C@@H](CCCNC(=N)N)C(=O)N[C@@]1(C)CCCC=CCCC[C@@](C)(C(=O)N[C@@H](Cc2ccccc2)C(=O)N[C@@H](CC(N)=O)C(=O)N[C@@H](C)C(=O)N[C@@H](Cc2ccc(O)cc2)C(=O)N[C@@H](Cc2ccc(O)cc2)C(=O)N[C@@H](C)C(=O)N[C@@H](CCCNC(=N)N)C(=O)N[C@@H](CCCNC(=N)N)C(N)=O)NC(=O)[C@H](CC(=O)O)NC(=O)CNC(=O)[C@H]([C@@H](C)CC)NC1=O)[C@@H](C)CC (single isomer, unassigned) [SP2 10 mg/kg IV rat] |  |  |  |  |  |  | 170685 | 70325 | 3.1 | 5.7
CC[C@H](C)[C@H](NC(C)=O)C(=O)N[C@@]1(C)CCCC=CCCC[C@@](C)(C(=O)N[C@@H](CC(C)C)C(=O)N[C@@H](CCCNC(=N)N)C(=O)N[C@@]2(C)CCCC=CCCC[C@@](C)(C(=O)N[C@@H](Cc3ccccc3)C(=O)N[C@@H](CC(N)=O)C(=O)N[C@@H](C)C(=O)N[C@@H](Cc3ccc(O)cc3)C(=O)N[C@@H](Cc3ccc(O)cc3)C(=O)N[C@@H](C)C(=O)N[C@@H](CCCNC(=N)N)C(=O)N[C@@H](CCCNC(=N)N)C(N)=O)NC(=O)[C@H](CC(=O)O)NC(=O)CNC(=O)[C@H]([C@@H](C)CC)NC2=O)NC(=O)[C@H](CCC(N)=O)NC(=O)[C@H](C)NC(=O)[C@H]([C@@H](C)CC)NC1=O [*SP16] | -14400 | 125889 | 0.4 | 22900 | 4.5 | 4.4 |  |  |  | 
CCCC[C@H](NC(=O)[C@@]1(C)CCCC=CCCCC2(CCCC=CCCC[C@](C)(NC(=O)[C@H](C)NC(=O)[C@@H](NC(=O)[C@H](CC(N)=O)NC(=O)[C@H](CCCNC(=N)N)NC(=O)[C@@H](NC(=O)[C@@H](NC(=O)[C@H](CC(=O)O)NC(C)=O)[C@@H](C)CC)[C@@H](C)CC)[C@@H](C)CC)C(=O)N[C@@H](Cc3c[nH]cn3)C(=O)N[C@@H](CC(C)C)C(=O)N[C@@H](C)C(=O)N2)C(=O)N[C@@H](C(C)C)C(=O)NCC(=O)N[C@@H](CC(=O)O)C(=O)N1)C(=O)N[C@@H](CC(=O)O)C(=O)N[C@@H](CCCNC(=N)N)C(=O)N[C@@H](CO)C(=O)N[C@H](C(N)=O)[C@@H](C)CC (stereo partly drawn) [*SP14] | -5840 | 74344 | 0.727 | 7200 | 6.7 | 8.7 |  |  |  | 
CC[C@H](C)[C@H](NC(C)=O)C(=O)N[C@@H](Cc1c[nH]c2ccccc12)C(=O)N[C@H](C(=O)N[C@@H](C)C(=O)N[C@@H](CCC(N)=O)C(=O)N[C@@H](CCC(=O)O)C(=O)N[C@@H](CC(C)C)C(=O)N[C@@H](CCCNC(=N)N)C(=O)N[C@@]1(C)CCCC=CCCC[C@@](C)(C(=O)N[C@@H](Cc2ccccc2)C(=O)N[C@@H](CC(N)=O)C(=O)N[C@@H](C)C(=O)N[C@@H](Cc2ccc(O)cc2)C(=O)N[C@@H](Cc2ccc(O)cc2)C(=O)N[C@@H](C)C(=O)N[C@@H](CCCNC(=N)N)C(=O)N[C@@H](CCCNC(=N)N)C(N)=O)NC(=O)[C@H](CC(=O)O)NC(=O)CNC(=O)[C@H]([C@@H](C)CC)NC1=O)[C@@H](C)CC (single isomer, unassigned) [SP2 1 mg/kg IV monkey] |  |  |  |  |  |  | 27275 | 19049 | 1.8 | 2.2
CC[C@H](C)[C@H](NC(C)=O)C(=O)N[C@@H](Cc1c[nH]c2ccccc12)C(=O)N[C@H](C(=O)N[C@@H](C)C(=O)N[C@@H](CCC(N)=O)C(=O)N[C@@H](C)C(=O)N[C@@H](CC(C)C)C(=O)N[C@@H](CCCNC(=N)N)C(=O)N[C@@H](CCCNC(=N)N)C(=O)N[C@H](C(=O)NCC(=O)N[C@@H](CC(=O)O)C(=O)N[C@@H](CCC(=O)O)C(=O)N[C@@H](Cc1ccccc1)C(=O)N[C@@H](CC(N)=O)C(=O)N[C@@H](C)C(=O)N[C@@H](Cc1ccc(O)cc1)C(=O)N[C@@H](Cc1ccc(O)cc1)C(=O)N[C@@H](C)C(=O)N[C@@H](CCCNC(=N)N)C(=O)N[C@@H](CCCNC(=N)N)C(N)=O)[C@@H](C)CC)[C@@H](C)CC [*SP15] | -2000 | 8430 | 7.467 | 48000 | 0.4 | 0.2 |  |  |  | 
CCCC[C@H](NC(=O)[C@]1(C)CCCC=CCCCC2(CCCC=CCCC[C@@](C)(NC(=O)[C@H](C)NC(=O)[C@@H](NC(=O)[C@H](CC(N)=O)NC(=O)[C@H](CCCNC(=N)N)NC(=O)[C@@H](NC(=O)[C@@H](NC(=O)[C@H](CC(=O)O)NC(C)=O)[C@@H](C)CC)[C@@H](C)CC)[C@@H](C)CC)C(=O)N[C@@H](Cc3c[nH]cn3)C(=O)N[C@@H](CC(C)C)C(=O)N[C@@H](C)C(=O)N2)C(=O)N[C@@H](C(C)C)C(=O)NCC(=O)N[C@@H](CC(=O)O)C(=O)N1)C(=O)N[C@@H](CC(=O)O)C(=O)N[C@@H](CCCNC(=N)N)C(=O)N[C@@H](CO)C(=O)N[C@H](C(N)=O)[C@@H](C)CC (stereo partly drawn) [*SP13] | -5450 | 82965 | 0.44 | 6100 | 9.5 | 13.2 |  |  |  | 
CC[C@H](C)[C@H](NC(C)=O)C(=O)N[C@@H](Cc1c[nH]c2ccccc12)C(=O)N[C@H](C(=O)N[C@@H](C)C(=O)N[C@]1(C)CCCC=CCCCC2(CCCC=CCCC[C@@](C)(C(=O)N[C@@H](Cc3ccccc3)C(=O)N[C@@H](CC(N)=O)C(=O)N[C@@H](C)C(=O)N[C@@H](Cc3ccc(O)cc3)C(=O)N[C@@H](Cc3ccc(O)cc3)C(=O)N[C@@H](C)C(=O)N[C@@H](CCCNC(=N)N)C(=O)N[C@@H](CCCNC(=N)N)C(N)=O)NC(=O)[C@H](CC(=O)O)NC(=O)CNC(=O)[C@H]([C@@H](C)CC)NC2=O)NC(=O)[C@H](CCCNC(=N)N)NC(=O)[C@H](CC(C)C)NC(=O)[C@H](C)NC1=O)[C@@H](C)CC (stereo partly drawn) [*SP20] | -19200 | 15000 | 3.017 | 1950 | 10.8 | 14.1 |  |  |  | 
CC[C@H](C)[C@H](NC(C)=O)C(=O)N[C@@H](Cc1c[nH]c2ccccc12)C(=O)N[C@H](C(=O)N[C@@H](C)C(=O)N[C@@H](CCC(N)=O)C(=O)N[C@@H](C)C(=O)N[C@@H](CC(C)C)C(=O)N[C@@H](CCCNC(=N)N)C(=O)N[C@@]1(C)CCCC=CCCC[C@@](C)(C(=O)N[C@@H](Cc2ccccc2)C(=O)N[C@@H](CC(N)=O)C(=O)N[C@@H](C)C(=O)N[C@@H](Cc2ccc(O)cc2)C(=O)N[C@@H](Cc2ccc(O)cc2)C(=O)N[C@@H](C)C(=O)N[C@@H](CCCNC(=N)N)C(=O)N[C@@H](CCCNC(=N)N)C(N)=O)NC(=O)[C@H](CC(=O)O)NC(=O)CNC(=O)[C@H]([C@@H](C)CC)NC1=O)[C@@H](C)CC [SP9] | -14900 | 124448 | 0.83 | 159000 | 7.3 | 4.5 |  |  |  | 
